# Reference: article PMC4005661 (2014)
# Test system: c-myc (DNA, G4) TGAGGGTGGGTAGGGTGGGTAA
# Test: fluorescence light-up, plate reader
# Conditions: 50 mM K+ (KCl); 50 mM Tris/HCl pH 7.5, room temperature; 1 µM strand, 0.5 µM ThT
smiles,measurement,value
Cc1ccc2c(c1)sc(-c1ccc(N(C)C)cc1)[n+]2C,fluorescence fold increase,14 fold
